Laboratory results: US20220117903A1, “DRUG DELIVERY SYSTEM AND METHOD” (SEOUL NATIONAL UNIVERSITY R&DB FOUNDATION, priority 2019, published 2022)

Test system: 4T1 tumors
Experiment: Therapeutic efficacy in mice bearing 4T1 tumors
Assay type: in vivo
Conditions: doxorubicin equivalent 5 mg/kg, four treatments once every 3 days
Procedure: Referring to FIGS. 22 and 23, the amounts of doxorubicin in four groups are equivalent at 5 mg/kg, and all mice received a total of four treatments once every 3 days.

COc1cccc2c1C(=O)c1c(O)c3c(c(O)c1C2=O)C[C@@](O)(C(=O)CO)C[C@@H]3O[C@H]1C[C@H](N)[C@H](O)[C@H](C)O1 [free doxorubicin, doxorubicin]
effect on tumor progression / tumor growth: Neither mice treated with free doxorubicin nor with MSNs-Tz/anti-CD11b-TCO without doxorubicin had an effect on tumor progression
